# Laboratory results reported in patent EP3572411A1, “THIAZOLE DERIVATIVES AS METALLO-BETA-LACTAMASE INHIBITORS” (Antabio SAS, priority 2018, dated 2019).
# Read-outs that look alike come from different tables or passages of the source.
# Tests used:
# Assay in all cases: In vitro enzyme inhibition assay (imipenem hydrolysis, UV 299 nm)
# Type in all cases: biochemical
# VIM-1 = biological target: T1, VIM-1 (Pseudomonas aeruginosa, UniProt A0A0F7KYQ8)
# T1 construct: VIM-1; VIM-2; IMP-1)
# Method: (§1) In vitro enzyme inhibition assays: Enzyme inhibition assays are performed using purified MBL enzymes (NDM-1; VIM-1; VIM-2; IMP-1) in 10mM HEPES buffer pH 7.5 in 96-well microtiter plates. Imipenem (300µM) is used as substrates and its hydrolysis is followed at UV 299 nm during 10mn every 30 seconds using a Perkin Elmer Envision UV fluorescence plate reader. Hydrolysis rate data in presence of a range of inhibitors are analysed using Dotmatics database software and calculated IC50 values are converted to Ki values using the Cheng-Prusoff equation. Ki = IC50 / (1+([S]/Km) and where the Km values for […] are 70 µM, 1.5 µM, 9 µM and 25 µM respectively. Compound dilution is performed in DMSO. Mean Ki values from multiple experiments are presented. Results are shown in Table 1.
# VIM-2 = biological target: T2, VIM-2 (Escherichia coli, UniProt Q5U7L7); settings: read-out: Ki (µM) VIM-2; purified enzyme, 10mM HEPES pH 7.5, Imipenem 300µM; mean Ki from IC50 by Cheng-Prusoff
# T2 construct: VIM-1; VIM-2
# Method: as §1
# IMP-1 = biological target: T3, IMP-1 (Serratia marcescens, UniProt P52699)
# T3 construct: VIM-1; VIM-2
# Method: as §1
# NDM-1 = biological target: T4, NDM-1 (Klebsiella pneumoniae, UniProt C7C422)
# T4 construct: VIM-1; VIM-2
# Method: as §1
# [1] = read-out: Ki (µM) VIM-1; purified enzyme, 10mM HEPES pH 7.5, Imipenem 300µM; mean Ki from IC50 by Cheng-Prusoff
# [2] = read-out: Ki (µM) IMP-1; purified enzyme, 10mM HEPES pH 7.5, Imipenem 300µM; mean Ki from IC50 by Cheng-Prusoff
# [3] = read-out: Ki (µM) NDM-1; purified enzyme, 10mM HEPES pH 7.5, Imipenem 300µM; mean Ki from IC50 by Cheng-Prusoff
# T4 sequence (C7C422 29-270, looked up): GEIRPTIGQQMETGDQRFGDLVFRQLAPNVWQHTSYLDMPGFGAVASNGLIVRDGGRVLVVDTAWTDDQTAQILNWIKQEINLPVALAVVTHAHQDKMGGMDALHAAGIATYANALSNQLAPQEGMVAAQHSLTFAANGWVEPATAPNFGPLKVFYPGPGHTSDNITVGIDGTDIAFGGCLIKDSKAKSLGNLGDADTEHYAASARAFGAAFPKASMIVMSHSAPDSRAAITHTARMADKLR
# T3 sequence (P52699 19-246, looked up, species assumed): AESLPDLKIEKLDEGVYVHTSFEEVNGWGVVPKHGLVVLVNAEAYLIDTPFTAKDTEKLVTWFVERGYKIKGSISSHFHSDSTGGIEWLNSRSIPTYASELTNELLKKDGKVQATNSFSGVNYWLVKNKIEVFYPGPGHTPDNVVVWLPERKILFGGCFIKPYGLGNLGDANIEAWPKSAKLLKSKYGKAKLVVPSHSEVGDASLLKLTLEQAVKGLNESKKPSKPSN
Structure (SMILES),Ki (VIM-1; [1]) [µM],Ki (VIM-2) [µM],Ki (IMP-1; [2]) [µM],Ki (NDM-1; [3]) [µM],"Ki (VIM-1; purified enzyme, 10mM HEPES pH 7.5, Imipenem 300µM; mean Ki from IC50 by Cheng-Prusoff; read-out: Ki (µM) VIM-1) [µM]","Ki (IMP-1; purified enzyme, 10mM HEPES pH 7.5, Imipenem 300µM; mean Ki from IC50 by Cheng-Prusoff; read-out: Ki (µM) IMP-1) [µM]","Ki (NDM-1; purified enzyme, 10mM HEPES pH 7.5, Imipenem 300µM; mean Ki from IC50 by Cheng-Prusoff; read-out: Ki (µM) NDM-1) [µM]"
"C[n+]1ccn(CC(=O)Nc2ccc(S(=O)(=O)Nc3scnc3C(=O)[O-])cc2F)c1 [Example 1, 1-[({4-[(4-carboxy-1,3-thiazol-5-yl)sulfamoyl]-2-fluorophenyl}carbamoyl)methyl]-3-methyl-1H-imidazol-3-ium]",0.2 to 0.5,0.05 to 0.2,1 to 8,< 0.05,,,
"Cc1n(CC(=O)Nc2ccc(S(=O)(=O)Nc3scnc3C(=O)[O-])cc2F)cc[n+]1C [Example 2, 1-[({4-[(4-carboxy-1,3-thiazol-5-yl)sulfamoyl]-2-fluorophenyl}carbamoyl)methyl]-2,3-dimethyl-1H-imidazol-3-ium]",0.2 to 0.5,0.05 to 0.2,1 to 8,0.05 to 0.2,,,
"C[n+]1ccn(CC(=O)Nc2ccc(S(=O)(=O)Nc3scnc3C(=O)[O-])cc2F)c1N [Example 3, 2-amino-1-[({4-[(4-carboxy-1,3-thiazol-5-yl)sulfamoyl]-2-fluorophenyl}carbamoyl)methyl]-3-methyl-1H-imidazol-3-ium]",0.2 to 0.5,0.05 to 0.2,1 to 8,0.05 to 0.2,,,
CSc1n(CC(=O)Nc2ccc(S(=O)(=O)Nc3scnc3C(=O)[O-])cc2F)cc[n+]1C [Example 4],,,,,0.2 to 0.5,1 to 8,0.05 to 0.2
"O=C(Cn1cc[n+]2c1COCC2)Nc1ccc(S(=O)(=O)Nc2scnc2C(=O)[O-])cc1F [Example 5, 1-[({4-[(4-carboxy-1,3-thiazol-5-yl)sulfamoyl]-2-fluorophenyl}carbamoyl)methyl]-1H,5H,6H,8H-4lambda5-imidazo[2,1-c][1,4]oxazin-4-ylium]",0.5 to 0.8,0.05 to 0.2,1 to 8,0.05 to 0.2,,,
"Cc1c[n+](C)cn1CC(=O)Nc1ccc(S(=O)(=O)Nc2scnc2C(=O)[O-])cc1F [Example 6, 1-[({4-[(4-carboxy-1,3-thiazol-5-yl)sulfamoyl]-2-fluorophenyl}carbamoyl)methyl]-3,5-dimethyl-1H-imidazol-3-ium]",0.5 to 0.8,0.05 to 0.2,1 to 8,0.2 to 0.4,,,
"Cc1cn(CC(=O)Nc2ccc(S(=O)(=O)Nc3scnc3C(=O)[O-])cc2F)c[n+]1C [Example 7, 1-[({4-[(4-carboxy-1,3-thiazol-5-yl)sulfamoyl]-2-fluorophenyl}carbamoyl)methyl]-3,4-dimethyl-1H-imidazol-3-ium]",< 0.2,0.02 to 0.05,1 to 8,0.2 to 0.4,,,
"C[n+]1c(N)ccn1CC(=O)Nc1ccc(S(=O)(=O)Nc2scnc2C(=O)[O-])cc1F [Example 8, 3-amino-1-[({4-[(4-carboxy-1,3-thiazol-5-yl)sulfamoyl]-2-fluorophenyl}carbamoyl)methyl]-2-methyl-1H-pyrazol-2-ium]",0.2 to 0.5,,1 to 8,0.05 to 0.2,,,
"C[n+]1ccn(CC(=O)Nc2ccc(S(=O)(=O)Nc3scnc3C(=O)[O-])cc2F)n1 [Example 9, 1-[({4-[(4-carboxy-1,3-thiazol-5-yl)sulfamoyl]-2-fluorophenyl}carbamoyl)methyl]-3-methyl-1H-1,2,3-triazol-3-ium]",0.2 to 0.5,0.05 to 0.2,1 to 8,< 0.05,,,
"C[n+]1cccn1CC(=O)Nc1ccc(S(=O)(=O)Nc2scnc2C(=O)[O-])cc1F [Example 10, 1-[({4-[(4-carboxy-1,3-thiazol-5-yl)sulfamoyl]-2-fluorophenyl}carbamoyl)methyl]-2-methyl-1H-pyrazol-2-ium]",0.2 to 0.5,,1 to 8,0.05 to 0.2,,,
"NCC[n+]1ccn(CC(=O)Nc2ccc(S(=O)(=O)Nc3scnc3C(=O)[O-])cc2F)c1 [Example 11, 3-(2-aminoethyl)-1-[({4-[(4-carboxy-1,3-thiazol-5-yl)sulfamoyl]-2-fluorophenyl}carbamoyl)methyl]-1H-imidazol-3-ium]",< 0.2,0.02 to 0.05,1 to 8,< 0.05,,,
"N=C(N)NCC[n+]1ccn(CC(=O)Nc2ccc(S(=O)(=O)Nc3scnc3C(=O)[O-])cc2F)c1 [Example 12, 3-(2-carbamimidamidoethyl)-1-[({4-[(4-carboxy-1,3-thiazol-5-yl)sulfamoyl]-2-fluorophenyl}carbamoyl)methyl]-1H-imidazol-3-ium]",< 0.2,0.05 to 0.2,1 to 8,< 0.05,,,
"C[n+]1ccn(CC(=O)Nc2c(F)cc(S(=O)(=O)Nc3scnc3C(=O)[O-])cc2F)c1 [Example 13, 1-[({4-[(4-carboxy-1,3-thiazol-5-yl)sulfamoyl]-2,6-difluorophenyl}carbamoyl)methyl]-3-methyl-1H-imidazol-3-ium]",0.5 to 0.8,0.05 to 0.2,1 to 8,0.05 to 0.2,,,
"NCC[n+]1ccn(CC(=O)Nc2c(F)cc(S(=O)(=O)Nc3scnc3C(=O)[O-])cc2F)c1 [Example 14, 3-(2-aminoethyl)-1-[({4-[(4-carboxy-1,3-thiazol-5-yl)sulfamoyl]-2,6-difluorophenyl}carbamoyl)methyl]-1H-imidazol-3-ium]",< 0.2,0.02 to 0.05,1 to 8,< 0.05,,,
"N=C(N)NCC[n+]1ccn(CC(=O)Nc2c(F)cc(S(=O)(=O)Nc3scnc3C(=O)[O-])cc2F)c1 [Example 15, 1-(2-carbamimidamidoethyl)-3-[({4-[(4-carboxy-1,3-thiazol-5-yl)sulfamoyl]-2,6-difluorophenyl}carbamoyl)methyl]imidazol-1-ium]",< 0.2,0.02 to 0.05,1 to 8,< 0.05,,,
"NCCC[n+]1ccn(CC(=O)Nc2ccc(S(=O)(=O)Nc3scnc3C(=O)[O-])cc2F)c1 [Example 16, 3-(3-aminopropyl)-1-[({4-[(4-carboxy-1,3-thiazol-5-yl)sulfamoyl]-2-fluorophenyl}carbamoyl)methyl]-1H-imidazol-3-ium]",< 0.2,< 0.02,1 to 8,< 0.05,,,
"N#Cc1cc(S(=O)(=O)Nc2scnc2C(=O)[O-])ccc1NC(=O)Cn1cc[n+](CCN)c1 [Example 18, 3-(2-aminoethyl)-1-[({4-[(4-carboxy-1,3-thiazol-5-yl)sulfamoyl]-2-cyanophenyl}carbamoyl)methyl]-1H-imidazol-3-ium]",< 0.2,< 0.02,0.5 to 1,0.05 to 0.2,,,
"N#Cc1cc(S(=O)(=O)Nc2scnc2C(=O)[O-])ccc1NC(=O)Cn1cc[n+](CCNC(=N)N)c1 [Example 19, 3-(2-carbamimidamidoethyl)-1-[({4-[(4-carboxy-1,3-thiazol-5-yl)sulfamoyl]-2-cyanophenyl}carbamoyl)methyl]-1H-imidazol-3-ium]",< 0.2,0.02 to 0.05,1 to 8,0.2 to 0.4,,,
"CN(C)CC[n+]1ccn(CC(=O)Nc2ccc(S(=O)(=O)Nc3scnc3C(=O)[O-])cc2F)c1 [Example 20, 3-[({4-[(4-carboxy-1,3-thiazol-5-yl)sulfamoyl]-2-fluorophenyl}carbamoyl)methyl]-1-[2-(dimethylamino)ethyl]imidazol-1-ium]",< 0.2,0.05 to 0.2,1 to 8,< 0.05,,,
"C[n+]1cn(CC(=O)Nc2ccc(S(=O)(=O)Nc3scnc3C(=O)[O-])cc2F)cn1 [Example 22, 4-[({4-[(4-carboxy-1,3-thiazol-5-yl)sulfamoyl]-2-fluorophenyl}carbamoyl)methyl]-1-methyl-1,2,4-triazol-1-ium]",0.2 to 0.5,0.05 to 0.2,0.5 to 1,0.05 to 0.2,,,
"C[n+]1ccn(CC(=O)Nc2c(F)cc(S(=O)(=O)Nc3scnc3C(=O)[O-])cc2F)n1 [Example 23, 1-[({4-[(4-carboxy-1,3-thiazol-5-yl)sulfamoyl]-2,6-difluorophenyl}carbamoyl)methyl]-3-methyl-1H-1,2,3-triazol-3-ium]",0.2 to 0.5,0.05 to 0.2,1 to 8,0.05 to 0.2,,,
"CC[n+]1ccn(CC(=O)Nc2ccc(S(=O)(=O)Nc3scnc3C(=O)[O-])cc2F)n1 [Example 24, 1-[({4-[(4-carboxy-1,3-thiazol-5-yl)sulfamoyl]-2-fluorophenyl}carbamoyl)methyl]-3-ethyl-1H-1,2,3-triazol-3-ium]",0.2 to 0.5,0.05 to 0.2,0.5 to 1,0.05 to 0.2,,,
"C[n+]1cnn(CC(=O)Nc2ccc(S(=O)(=O)Nc3scnc3C(=O)[O-])cc2F)c1 [Example 25, 1-[({4-[(4-carboxy-1,3-thiazol-5-yl)sulfamoyl]-2-fluorophenyl}carbamoyl)methyl]-4-methyl-1H-1,2,4-triazol-4-ium]",0.2 to 0.5,0.05 to 0.2,1 to 8,0.05 to 0.2,,,
